Patent US12344610B2, “APOL1 inhibitors and methods of use” (Maze Therapeutics, Inc., priority 2022, dated 2025)
pEC50: −log10 of the molar value.

Experiments:
Format in all cases: cell-based
[1] = tested on: HEK293 cells overexpressing APOL1 G2; experiment: APOL1 G2 HEK293 cell rescue assay (reversal of cell death caused by overexpression of APOL1); settings: Homo sapiens, HEK293, HEK293 overexpressing APOL1 G2; geometric mean of at least 2 assay runs; † = single assay run
Method in brief: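 EC50 is the half-maximal effective concentration for reversing cell death driven by APOL1 G2 overexpression in HEK293 cells. Reported as geometric mean of at least 2 runs on separate days, each run averaging duplicate wells per plate; some values from a single run.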

[2] = tested on: HEK293 clonal cell line overexpressing APOL1 G1; experiment: APOL1 G1 HEK293 cell rescue assay (Example B3); settings: Homo sapiens, HEK293, HEK293 clonal line overexpressing APOL1 G1; geometric mean of at least 2 runs; † = single run; ¥ = concentration at 50% rescue estimated (no sigmoidal curve)
Method in brief: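 HEK293 clonal line overexpressing APOL1 G1; EC50 is half-maximal reversal of APOL1-induced cell death. Values are the geometric mean of ≥2 runs on separate days, each run the average of duplicate wells. Where no sigmoidal curve could be fitted, the concentration giving 50% rescue was estimated.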

[3] = biological target: T1, APOL1 G2 (Homo sapiens, UniProt O14791, DEL388-389); experiment: APOL1-mediated calcium transport (calcium influx) assay, HEK T-REx/GCaMP6f/APOL1 G2 K6.3 cells, FLIPR TETRA; settings: prevention of calcium influx; geometric mean of at least 2 assay runs; † = average of a technical replicate from a single assay run
T1 construct: expressed in transfected cells; host or cells: HEK293 T-REx clonal line stably expressing GCaMP6f (HEK T-REx/GCaMP6f/APOL1 G2 K6.3), doxycycline induced
T1 sequence (O14791 with tags, fused parts or gaps DEL388-389): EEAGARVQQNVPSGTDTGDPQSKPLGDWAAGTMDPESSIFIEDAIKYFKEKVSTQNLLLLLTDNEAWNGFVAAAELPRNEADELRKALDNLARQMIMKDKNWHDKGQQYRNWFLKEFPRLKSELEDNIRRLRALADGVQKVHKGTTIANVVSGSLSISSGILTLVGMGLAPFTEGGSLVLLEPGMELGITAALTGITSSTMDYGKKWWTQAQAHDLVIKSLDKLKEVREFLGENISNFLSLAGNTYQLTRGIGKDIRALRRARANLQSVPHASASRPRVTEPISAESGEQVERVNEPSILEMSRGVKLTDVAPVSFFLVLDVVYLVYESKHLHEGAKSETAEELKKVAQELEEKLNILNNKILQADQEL
Method in brief: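 A HEK293 T-REx clone stably expressing GCaMP6f had APOL1 G2 induced with doxycycline (20 ng/mL solution added) for 6 h. Cells were then washed into Ca2+-free Tyrode's buffer (pH 7.4) and preincubated with compounds (duplicate 8-point) for 10 min at room temperature. Ca2+ injection to 5 mM final produced FLIPR GCaMP fluorescence, giving AC50 for influx inhibition (geometric mean, ≥2 runs).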

`[2H]C([2H])([2H])N1C(=O)C2(CCN(CCOc3cnc4c(c3)CCC(=O)N4CC(C)(C)O)CC2)c2cc(Cl)ccc21` [Compound 417, 5-chloro-1′-(2-{[8-(2-hydroxy-2-methylpropyl)-7-oxo-5,6,7,8-tetrahydro-1,8-naphthyridin-3-yl]oxy}ethyl)-1-(^2H3)methyl-1,2-dihydrospiro[indole-3,4′-piperidin]-2-one] showed a pEC50 [1] of 7.31, a pEC50 [2] of 6.98 and an AC50 [3] of 343 nM.
Compound `[2H]C([2H])([2H])N1C(=O)C2(CCN(CCOc3ccc(S(C)(=O)=O)cc3)CC2)c2cc(Cl)ccc21` [Compound 418] has a pEC50 [1] of 7.11, a pEC50 [2] of 6.67 and an AC50 [3] of 309 nM.
`[2H]C([2H])([2H])N1C(=O)C2(CCN(CCOc3cnc4c(c3)CCC(=O)N4[C@H]3C[C@@](C)(O)C3)CC2)c2cc(Cl)ccc21` [Compound 419, 5-chloro-1-(^2H3)methyl-1′-[2-({7-oxo-8-[(1r,3s)-3-hydroxy-3-methylcyclobutyl]-5,6,7,8-tetrahydro-1,8-naphthyridin-3-yl}oxy)ethyl]-1,2-dihydrospiro[indole-3,4′-piperidin]-2-one] was tested, and the pEC50 [1] was 7.51, the pEC50 [2] was 6.97 and the AC50 [3] was 383 nM.
Work on `[2H]C([2H])([2H])N1C(=O)C2(CCN(CCOc3cnc(C4(CO)CC4)nc3)CC2)c2cc(Cl)ccc21` [Compound 420, 5-chloro-1′-[2-({2-[1-(hydroxymethyl)cyclopropyl]pyrimidin-5-yl}oxy)ethyl]-1-(^2H3)methyl-1,2-dihydrospiro[indole-3,4′-piperidin]-2-one] yielded a pEC50 [1] of 7.19, a pEC50 [2] of 6.84 and an AC50 [3] of 892 nM.
Compound `[2H]C([2H])([2H])N1C(=O)C2(CCN(CCOc3cc(F)c4c(c3)CCNS4(=O)=O)CC2)c2cc(Cl)ccc21` [Compound 421, 6-{2-[5-chloro-1-(^2H3)methyl-2-oxo-1,2-dihydrospiro[indole-3,4′-piperidin]-1′-yl]ethoxy}-8-fluoro-3,4-dihydro-2H-1λ^6,2-benzothiazine-1,1-dione] has a pEC50 [1] of 7.46, a pEC50 [2] of 7.08 and an AC50 [3] of 564 nM.
`[2H]C([2H])([2H])N1C(=O)C2(CCN(CCOc3cnc4c(c3)CCC(=O)N4[C@H]3C[C@@H](O)C3)CC2)c2cc(Cl)ccc21` [Compound 423, 5-chloro-1-(^2H3)methyl-1′-[2-({7-oxo-8-[(cis)-3-hydroxycyclobutyl]-5,6,7,8-tetrahydro-1,8-naphthyridin-3-yl}oxy)ethyl]-1,2-dihydrospiro[indole-3,4′-piperidin]-2-one] gave a pEC50 [1] of 7.23, a pEC50 [2] of 6.94 and an AC50 [3] of 284 nM.
Work on `[2H]C([2H])([2H])N1C(=O)C2(CCN(CCOc3cnc(C4(S(C)(=O)=O)CC4)nc3)CC2)c2cc(Cl)ccc21` [Compound 424, 5-chloro-1′-(2-{[2-(1-methanesulfonylcyclopropyl)pyrimidin-5-yl]oxy}ethyl)-1-(^2H3)methyl-1,2-dihydrospiro[indole-3,4′-piperidin]-2-one] yielded a pEC50 [1] of 7.30, a pEC50 [2] of 6.95 and an AC50 [3] of 895 nM.
`[2H]C([2H])([2H])N1C(=O)C2(CCN(CCOc3cnc(C(C)S(C)(=O)=O)nc3)CC2)c2cc(Cl)ccc21` (stereo not drawn) [Compound 425, 5-chloro-1′-(2-{[2-(1-methanesulfonylethyl)pyrimidin-5-yl]oxy}ethyl)-1-(^2H3)methyl-1,2-dihydrospiro[indole-3,4′-piperidin]-2-one] gave a pEC50 [1] of 7.04, a pEC50 [2] of 6.57 and an AC50 [3] of 1100 nM.
With `O=C1Nc2ccc(Cl)cc2C12CCN(CCOc1cnc(C3(O)COC3)nc1)CC2` [Compound 429, 5-chloro-1′-(2-{[2-(3-hydroxyoxetan-3-yl)pyrimidin-5-yl]oxy}ethyl)-1,2-dihydrospiro[indole-3,4′-piperidin]-2-one] the pEC50 [1] was 6.89, the pEC50 [2] was 6.70 and the AC50 [3] was 435 nM.
Compound `O=C1Nc2ccc(Cl)cc2C12CCN(CCOc1cnc(C3(O)CCC3)nc1)CC2` [Compound 430, 5-chloro-1′-(2-{[2-(1-hydroxycyclobutyl)pyrimidin-5-yl]oxy}ethyl)-1,2-dihydrospiro[indole-3,4′-piperidin]-2-one] has a pEC50 [1] of 7.14, a pEC50 [2] of 6.91 and an AC50 [3] of 518 nM.
With `CC1(O)CN(c2ncc(OCCN3CCC4(CC3)C(=O)Nc3ccc(C#N)cc34)cc2C(F)(F)F)C1` [Compound 431, 1′-(2-{[6-(3-hydroxy-3-methylazetidin-1-yl)-5-(trifluoromethyl)pyridin-3-yl]oxy}ethyl)-2-oxo-1,2-dihydrospiro[indole-3,4′-piperidine]-5-carbonitrile] the pEC50 [1] was 7.73, the pEC50 [2] was 7.43 and the AC50 [3] was 4870 nM.
`CC(C)(CO)c1ncc(OCCN2CCC3(CC2)C(=O)Nc2ccc(C#N)cc23)cn1` [Compound 432, 1′-(2-{[2-(1-hydroxy-2-methylpropan-2-yl)pyrimidin-5-yl]oxy}ethyl)-2-oxo-1,2-dihydrospiro[indole-3,4′-piperidine]-5-carbonitrile] gave a pEC50 [1] of 6.79, a pEC50 [2] of 6.54 and an AC50 [3] of 2560 nM.
For `C[C@]1(O)C[C@@H](n2cnc3cc(OCCN4CCC5(CC4)C(=O)Nc4ccc(Cl)cc45)cc(C(F)F)c32)C1` [Compound 445, 5-chloro-1′-(2-{[7-(difluoromethyl)-1-[(cis)-3-hydroxy-3-methylcyclobutyl]-1H-1,3-benzodiazol-5-yl]oxy}ethyl)-1,2-dihydrospiro[indole-3,4′-piperidin]-2-one], the pEC50 [1] was 8.09, the pEC50 [2] was 7.53 and the AC50 [3] was 1110 nM.
With `C[C@]1(O)C[C@@H](n2cnc3cc(OCCN4CCC5(CC4)C(=O)Nc4ccc(C#N)cc45)cc(C(F)F)c32)C1` [Compound 446, 1′-(2-{[7-(difluoromethyl)-1-[(cis)-3-hydroxy-3-methylcyclobutyl]-1H-1,3-benzodiazol-5-yl]oxy}ethyl)-2-oxo-1,2-dihydrospiro[indole-3,4′-piperidine]-5-carbonitrile] the pEC50 [1] was 7.48, the pEC50 [2] was 7.08 and the AC50 [3] was 1180 nM.
Compound `C[C@]1(O)C[C@@H](n2cnc3cc(OCCN4CCC5(CC4)C(=O)Nc4ccc(Cl)cc45)cc(OC(F)F)c32)C1` [Compound 447, 5-chloro-1′-(2-{[7-(difluoromethoxy)-1-[(cis)-3-hydroxy-3-methylcyclobutyl]-1H-1,3-benzodiazol-5-yl]oxy}ethyl)-1,2-dihydrospiro[indole-3,4′-piperidin]-2-one] has a pEC50 [1] of 7.47, a pEC50 [2] of 7.19 and an AC50 [3] of 1130 nM.
In the case of `C[C@]1(O)C[C@@H](n2cnc3cc(OCCN4CCC5(CC4)C(=O)Nc4ccc(C#N)cc45)cc(OC(F)F)c32)C1` [Compound 448, 1′-(2-{[7-(difluoromethoxy)-1-[(cis)-3-hydroxy-3-methylcyclobutyl]-1H-1,3-benzodiazol-5-yl]oxy}ethyl)-2-oxo-1,2-dihydrospiro[indole-3,4′-piperidine]-5-carbonitrile], the pEC50 [1] was 6.95, the pEC50 [2] was 6.16 and the AC50 [3] was 1140 nM.
Work on `CC(C)(O)c1ncc(OCCN2CCC3(CC2)C(=O)Nc2c(I)cc(Cl)cc23)cn1` [Compound 449, 5-chloro-1′-(2-((2-(2-hydroxypropan-2-yl)pyrimidin-5-yl)oxy)ethyl)-7-iodospiro[indoline-3,4′-piperidin]-2-one] yielded a pEC50 [1] of 6.99, a pEC50 [2] of 6.61 and an AC50 [3] of 609 nM.
With `Cc1nc2cc(OCCN3CCC4(CC3)C(=O)Nc3ccc(Cl)cc34)cnc2n1[C@H]1C[C@@](C)(O)C1` [Compound 451, 5-chloro-1′-[2-({2-methyl-3-[(cis)-3-hydroxy-3-methylcyclobutyl]-3H-imidazo[4,5-b]pyridin-6-yl}oxy)ethyl]-1,2-dihydrospiro[indole-3,4′-piperidin]-2-one] the pEC50 [1] was 7.49, the pEC50 [2] was 6.94 and the AC50 [3] was 459 nM.
Compound `C[C@]1(O)C[C@@H](N2C(=O)NCc3cc(OCCN4CCC5(CC4)C(=O)Nc4ccc(Cl)cc45)cc(C(F)(F)F)c32)C1` [Compound 456, 5-chloro-1′-[2-({2-oxo-1-[(cis)-3-hydroxy-3-methylcyclobutyl]-8-(trifluoromethyl)-1,2,3,4-tetrahydroquinazolin-6-yl}oxy)ethyl]-1,2-dihydrospiro[indole-3,4′-piperidin]-2-one] has a pEC50 [1] of 7.55, a pEC50 [2] of 7.01 and an AC50 [3] of 1010 nM.
In the case of `CC1(C)OC(=O)c2cc(OCCN3CCC4(CC3)C(=O)Nc3ccc(Cl)cc34)cnc21` [Compound 458, 5-chloro-1′-[2-({7,7-dimethyl-5-oxo-5H,7H-furo[3,4-b]pyridin-3-yl}oxy)ethyl]-1,2-dihydrospiro[indole-3,4′-piperidin]-2-one], the pEC50 [1] was 7.78, the pEC50 [2] was 7.12 and the AC50 [3] was 528 nM.
